# Reference: patent US9090596B2, “Disubstituted 3,4-diamino-3-cyclobutene-1,2-dione compounds for use in the treatment of chemokine-mediated pathologies” (GALDERMA RESEARCH & DEVELOPMENT, priority 2011, dated 2015)
# Legend:
# CXCR1 receptor = CXCR1 receptor (Homo sapiens (Human), UniProt P25024); assay: β-arrestin 2 recruitment test, U2OS hCXCR1 β-arrestin cells stimulated with CXCL8; format: cell-based; conditions: CXCL8 stimulation
# Description: (§1) The in vitro affinity of the compounds of the present invention for the CXCR1 and CXCR2 receptors was determined on a functional test of the β-arrestin recruitment type after receptor activation.
# (§2) β-Arrestin Recruitment Assay:
# (§3) “PathHunter HEK293-CXCR2” or “U2OS hCXCR1 β-arrestin” cells (DiscoveRx Corporation) were seeded overnight at 10 000 cells/well (384-well format) in 20 μl of Opti MEM I medium. A preincubation with the antagonist or the vehicle for 30 min at 37° C. and 5% CO2 was followed by 60 minutes of stimulation with CXCL8 at 37° C. and 5% CO2. The cells were then placed at ambient temperature for 30 minutes. The PathHunter detection reagent (DiscoveRx Corporation) was added. […] The data were analyzed by means of a non-linear curve procedure using the XLFit4 exploitation software (IDBS) and the IC50 values were determined.
# CXCR2 receptor = CXCR2 receptor (Homo sapiens (Human), UniProt P25025); assay: β-arrestin 2 recruitment test, PathHunter HEK293-CXCR2 cells stimulated with CXCL8; format: cell-based; conditions: CXCL8 stimulation
# CXCR2 receptor, sequence (P25025 whole entry): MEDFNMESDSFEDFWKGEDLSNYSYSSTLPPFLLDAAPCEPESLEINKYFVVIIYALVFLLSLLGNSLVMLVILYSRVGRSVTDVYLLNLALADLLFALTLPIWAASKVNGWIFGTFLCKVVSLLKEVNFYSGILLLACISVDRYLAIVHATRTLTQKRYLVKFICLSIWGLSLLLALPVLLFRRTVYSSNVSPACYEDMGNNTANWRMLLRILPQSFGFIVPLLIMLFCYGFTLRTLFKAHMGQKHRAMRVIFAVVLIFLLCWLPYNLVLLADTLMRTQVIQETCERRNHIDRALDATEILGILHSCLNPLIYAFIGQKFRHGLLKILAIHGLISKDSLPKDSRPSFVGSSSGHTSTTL
# Description: as §1, §2, §3
# [1] = Metabolic stabilities in hepatic microsomes; format: in vitro ADME; conditions: pH 7.4; hepatic microsomes 0.5 mg/ml, compound 1 μM; read-out: Half-life time
# Description: Hepatic microsomes (Becton Dickinson) were incubated at a protein concentration of 0.5 mg/ml in the reaction medium.
# The reaction medium of the microsomes was composed of phosphate buffer, pH: 7.4 at 100 mM, of MgCl2 at 100 mM (50/50), of an […] composed of a mixture of […] (NADP) and of glucose-6-phosphate (G6P) at 1 mg/ml and of glucose-6-phosphate dehydroganase (G6PDH) at 4 U/ml. The compounds were tested at 1 μM (0.1% DMSO).
# The samples of incubation medium after addition of the microsomes were taken at times 5, 10, 15, 30 and 60 minutes. At each time, the metabolic reaction was stopped by adding methanol (1 volume incubation medium/3 volumes of methanol). The disappearance of the parent product was measured by LC/MS/MS analysis. The time for which 50% of parent Product disappeared (T½) was calculated from the kinetics of disappearance of the parent product as a function of time.
# CCR4 = CCR4 (Homo sapiens (Human), UniProt P51679); assay: Receptor profiling: calcium flux (FLIPR TETRA) on Chem-1 cells expressing chemokine receptor; format: cell-based; parameters: key to IC50 CCR4: IA: Inactive; conditions: antagonist activity, reference agonist at AC80
# CCR4, sequence (P51679 whole entry): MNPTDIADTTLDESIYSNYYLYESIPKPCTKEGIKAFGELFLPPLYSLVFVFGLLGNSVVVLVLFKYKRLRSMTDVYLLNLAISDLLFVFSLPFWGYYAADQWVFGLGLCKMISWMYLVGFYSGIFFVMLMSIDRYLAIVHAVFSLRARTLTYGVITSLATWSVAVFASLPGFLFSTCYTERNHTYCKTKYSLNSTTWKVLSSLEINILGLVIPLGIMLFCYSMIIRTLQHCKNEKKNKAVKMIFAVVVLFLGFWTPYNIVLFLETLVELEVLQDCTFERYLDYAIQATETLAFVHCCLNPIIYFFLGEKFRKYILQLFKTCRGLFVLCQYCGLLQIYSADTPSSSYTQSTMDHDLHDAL
# Description: (§4) Measurement of Calcium Flux on Cells:
# (§5) The experiments were carried out on the FLIPR TETRA® platform from Molecular Devices. After the basal level had been read, the compounds were added to the cells expressing the chemokine receptor of interest and the agonist activity was read at 10 seconds.
# (§6) Each cell line expressing a chemokine receptor was established on the basis of the Chem-1 cell stably expressing the recombinant form of the chemokine receptor and also an associated G protein, with the aim of coupling the receptor to the calcium signalling pathway. 21 receptors belonging to the chemokine receptor family (CCRs and CXCRs) were analyzed. All the CXCR2 antagonists were tested in a dose-dependent manner and the concentration corresponding to 50% inhibition of the response was determined (IC50).
# [2] = Metabolic stabilities in hepatocytes; format: in vitro ADME; conditions: human hepatocytes, compound 1 μM; read-out: Half-life time
# Description: The human hepatocytes were supplied by Biopredic in 24-well plates.
# At each time, the metabolic reaction was stopped by adding methanol (1 volume incubation medium/3 volumes of methanol). The disappearance of the parent product was measured by LC/MS/MS analysis. The time for which 50% (T½) of parent product disappeared was calculated from the kinetics of disappearance of the parent product as a function of time.
# CXCR3 = CXCR3 (Homo sapiens (Human), UniProt P49682); assay: Receptor profiling: calcium flux (FLIPR TETRA) on Chem-1 cells expressing chemokine receptor; format: cell-based; conditions: antagonist activity, reference agonist at AC80
# CXCR3, sequence (P49682 whole entry): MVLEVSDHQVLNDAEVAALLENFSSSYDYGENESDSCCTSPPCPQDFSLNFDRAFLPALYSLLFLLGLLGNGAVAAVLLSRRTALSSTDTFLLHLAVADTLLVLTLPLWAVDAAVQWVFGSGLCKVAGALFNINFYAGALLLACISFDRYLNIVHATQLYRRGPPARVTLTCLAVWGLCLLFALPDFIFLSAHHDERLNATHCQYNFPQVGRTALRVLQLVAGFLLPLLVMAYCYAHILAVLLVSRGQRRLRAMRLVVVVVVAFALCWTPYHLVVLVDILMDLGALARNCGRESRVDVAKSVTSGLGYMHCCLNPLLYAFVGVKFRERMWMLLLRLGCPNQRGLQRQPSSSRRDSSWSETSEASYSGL
# Description: as §4, §5, §6
# [3] = test system: receptors of CXCR1 and CXCR2 type; conditions: pseudo-irreversible dissociation, JPET 322:477-485, 2007; cited from earlier work
# CXCR1 receptor, sequence (P25024 whole entry): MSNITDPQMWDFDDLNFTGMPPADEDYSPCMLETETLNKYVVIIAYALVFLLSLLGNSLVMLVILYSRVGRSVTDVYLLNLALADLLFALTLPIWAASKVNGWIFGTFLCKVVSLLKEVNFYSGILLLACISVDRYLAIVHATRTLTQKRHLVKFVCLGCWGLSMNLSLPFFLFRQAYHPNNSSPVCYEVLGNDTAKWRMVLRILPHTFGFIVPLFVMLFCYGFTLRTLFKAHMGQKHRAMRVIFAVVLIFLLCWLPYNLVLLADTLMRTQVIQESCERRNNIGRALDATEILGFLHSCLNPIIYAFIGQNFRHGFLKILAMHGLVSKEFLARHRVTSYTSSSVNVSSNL
SMILES,IC50 (CXCR1 receptor),IC50 (CXCR2 receptor),melting point,other results
"Cc1ccc(C(Nc2c(Nc3cccc(C(=O)N(C)C)c3O)c(=O)c2=O)C2(CF)COC2)o1 (stereo not drawn) [Example 2, 3-(2-{[(3-fluoromethyloxetan-3-yl)-(5-methyl-furan-2-yl)methyl}amino]-3,4-dioxocyclobut-1-enylamino)-2-hydroxy-N,N-dimethylbenzamide]",1.59 µM,0.272 µM,186 to 188 °C,
"Cc1ccc([C@H](Nc2c(Nc3ccc(Cl)c(S(=O)(=O)N4CCN(C)CC4)c3O)c(=O)c2=O)C2(C)COC2)o1 [Example 53, 3-[4-chloro-2-hydroxy-3-(4-methylpiperazine-1-sulfonyl)phenylamino]-4-{[(R)-(5-methylfuran-2-yl)-(3-methyloxetan-3-yl)methyl]amino}cyclobut-3-ene-1,2-dione]",0.115 µM,0.03 µM,,half-life at 1 μM [1]: 47 min; IC50 (CCR4): 0.45 µM; half-life at 1 μM [2]: 186 min; IC50 (CXCR3): 0.92 µM
CC[C@@H](Nc1c(Nc2cccc(C(=O)N(C)C)c2O)c(=O)c1=O)c1ccc(C)o1 [SCH-527123],,,,dissociation time [3]: about 22 h
"Cc1ccc([C@H](Nc2c(Nc3cccc(C(=O)N(C)C)c3O)c(=O)c2=O)C2(C)COC2)o1 [Example 50, 2-hydroxy-N,N-dimethyl-3-(2-{[((R)-5-methylfuran-2-yl)-(3-methyloxetan-3-yl)methyl]amino}-3,4-dioxocyclobut-1-enylamino)benzamide]",,,,IC50 (CXCR3): 0.7 µM
"Cc1ccc(C(Nc2c(Nc3cccc(C(=O)N4CCC(O)C4)c3)c(=O)c2=O)C2(C)COC2)o1 (stereo not drawn) [Example 31, 3-[3-(3-hydroxypyrrolidine-1-carbonyl)phenylamino]-4-{[(5-methylfuran-2-yl)-(3-methyloxetan-3-yl)methyl]amino}cyclobut-3-ene-1,2-dione]",3.53 µM,0.716 µM,242 to 245 °C,
"COC(=O)[C@H]1CCCN1C(=O)c1cccc(Nc2c(N[C@@H](c3ccc(C)o3)C3(C)COC3)c(=O)c2=O)c1O [Example 8, methyl (R)-1-[2-hydroxy-3-(2-{[(R)-(5-methylfuran-2-yl)-(3-methyloxetan-3-yl)methyl]amino}-3,4-dioxocyclobut-1-enylamino)benzoyl]pyrrolidine-2-carboxylate]",0.604 µM,0.037 µM,,IC50 CCR4 (CCR4): IA; IC50 (CXCR3): 0.24 µM
"Cc1cc(C(Nc2c(Nc3cccc(C(=O)N(C)C)c3O)c(=O)c2=O)C2(C)COC2)oc1C (stereo not drawn) [Example 27, 3-(2-{[(4,5-dimethylfuran-2-yl)-(3-methyloxetan-3-yl)methyl]amino}-3,4-dioxocyclobut-1-enylamino)-2-hydroxy-N,N-dimethylbenzamide]",1.54 µM,0.244 µM,207 to 209 °C,
"COC(=O)[C@@H]1CCCN1C(=O)c1cccc(Nc2c(NC(c3ccc(C)o3)C3(C)COC3)c(=O)c2=O)c1Cl (stereo partly drawn) [Example 46, methyl (S)-1-[2-chloro-3-(2-{[(5-methylfuran-2-yl)-(3-methyloxetan-3-yl)methyl]amino}-3,4-dioxocyclobut-1-enylamino)benzoyl]pyrrolidine-2-carboxylate]",,,148 to 158 °C,
"Cc1ccc(C(Nc2c(Nc3cccc(C(=O)N(C)C)c3O)c(=O)c2=O)C2(C)CN(C(=O)OC(C)(C)C)C2)o1 (stereo not drawn) [Example 26, tert-butyl 3-[[2-(3-dimethylcarbamoyl-2-hydroxyphenylamino)-3,4-dioxo-cyclobut-1-enylamino]-(5-methylfuran-2-yl)methyl]-3-methylazetidine-1-carboxylate]",,,162 to 165 °C,
COC(=O)C1CCCCN1C(=O)c1cccc(Nc2c(NC(c3ccc(C)o3)C3(C)COC3)c(=O)c2=O)c1 (stereo not drawn),,,130 to 132 °C,
"Cc1ccc(C(Nc2c(Nc3cccc(C(=O)N4CCC[C@@H]4C(=O)OC(C)(C)C)c3O)c(=O)c2=O)C2(C)COC2)o1 (stereo partly drawn) [Example 7, (R)-1-[2-hydroxy-3-(2-{[(5-methylfuran-2-yl)-(3-methyloxetan-3-yl)methyl]amino}-3,4-dioxocyclobut-1-enylamino)benzoyl]pyrrolidine-2-carboxylic acid tert-butyl ester]",2.41 µM,0.1 µM,162 to 164 °C,
"Cc1ccc(C(Nc2c(Nc3cccc4nn[nH]c34)c(=O)c2=O)C2(C)COC2)o1 (stereo not drawn) [Example 23, 3-(3H-benzotriazol-4-ylamino)-4-{[(5-methylfuran-2-yl)-(3-methyloxetan-3-yl)methyl]amino}cyclobut-3-ene-1,2-dione]",,,178 to 180 °C,
"Cc1ccc(C(Nc2c(Nc3cccc(S(=O)(=O)N(C)C)c3O)c(=O)c2=O)C2(C)COC2)o1 (stereo not drawn) [Example 21, 2-hydroxy-N,N-dimethyl-3-(2-{[(5-methylfuran-2-yl)-(3-methyloxetan-3-yl)methyl]amino}-3,4-dioxocyclobut-1-enylamino)benzenesulfonamide]",1.44 µM,0.257 µM,,half-life at 1 μM [1]: 7.7 min
"Cc1ccc(C(Nc2c(Nc3cccc(C(C)O)c3O)c(=O)c2=O)C2(C)COC2)o1 (stereo not drawn) [Example 11, 3-[2-hydroxy-3-(1-hydroxyethyl)phenylamino]-4-{[(5-methylfuran-2-yl)-(3-methyloxetan-3-yl)methyl]amino}cyclobut-3-ene-1,2-dione]",6.51 µM,0.549 µM,129 to 131 °C,
"Cc1ccc(C(Nc2c(Nc3cccc(C(=O)N(C)C)c3O)c(=O)c2=O)C2(C)COC2)o1 (stereo not drawn) [Example 1, 2-hydroxy-N,N-dimethyl-3-(2-{[(5-methylfuran-2-yl)-(3-methyloxetan-3-yl)methyl]amino}-3,4-dioxocyclobut-1-enylamino)benzamide]",,,196 to 198 °C,
"Cc1ccc(C(Nc2c(Nc3cccc(C(=O)N4CC[C@H](O)C4)c3O)c(=O)c2=O)C2(C)COC2)o1 (stereo partly drawn) [Example 6, 3-[2-hydroxy-3-((S)-3-hydroxypyrrolidine-1-carbonyl)phenylamino]-4-{[(5-methylfuran-2-yl)-(3-methyloxetan-3-yl)methyl]amino}cyclobut-3-ene-1,2-dione]",2.84 µM,1.09 µM,,
"Cc1ccc(C(Nc2c(Nc3cccn(C)c3=O)c(=O)c2=O)C2(C)COC2)o1 (stereo not drawn) [Example 19, 3-{[(5-methylfuran-2-yl)-(3-methyloxetan-3-yl)methyl]amino}-4-(1-methyl-2-oxo-1,2-dihydropyridin-3-ylamino)cyclobut-3-ene-1,2-dione]",4.96 µM,0.394 µM,,
"Cc1ccc(C(Nc2c(Nc3cccc(C(=O)N4CC[C@@H](O)C4)c3O)c(=O)c2=O)C2(C)COC2)o1 (stereo partly drawn) [Example 5, 3-[2-hydroxy-3-((R)-3-hydroxypyrrolidine-1-carbonyl)phenylamino]-4-{[(5-methylfuran-2-yl)-(3-methyloxetan-3-yl)methyl]amino}cyclobut-3-ene-1,2-dione]",2.62 µM,0.341 µM,,
"Cc1ccc(C(Nc2c(Nc3cccc(C(=O)O)c3O)c(=O)c2=O)C2(C)COC2)o1 (stereo not drawn) [Example 4, 2-hydroxy-3-(2-{[(5-methylfuran-2-yl)-(3-methyloxetan-3-yl)methyl]amino}-3,4-dioxocyclobut-1-enylamino)benzoic acid]",,,180 to 185 °C,
